Assay results: patent publication US8637511B2, “Aminopyrimidines useful as kinase inhibitors” (Vertex Pharmaceuticals Incorporated, priority 2005, dated 2014)
Several values for one entry are separate records, joined by “and”; a condition that tells them apart may be missing. Identical values can stand only once. Like-named read-outs stand apart in the source and are kept apart here.

Assays:
Aurora-1 (Aurora B) = Aurora-1 (Aurora B) (Homo sapiens, UniProt Q96GD4); test: Aurora-1 (Aurora B) inhibition assay (radiometric); assay type: biochemical; settings: read-out: Aurora B kinase Ki value
Experimental: An assay buffer solution was prepared which consisted of 25 mM HEPES (pH 7.5), 10 mM MgCl2, 0.1% BSA and 10% glycerol. […] To 22 μL of the Aurora-B solution, in a 96-well plate, was added 2 μl of a compound stock solution in DMSO and the mixture allowed to equilibrate for 10 minutes at 25° C. The enzyme reaction was initiated by the addition of 16 μl stock [γ-^33P]-ATP solution (˜20 nCi/μL) prepared in assay buffer, to a final assay concentration of 800 μM. The reaction was stopped after 3 hours by the addition of 16 μL 500 mM phosphoric acid and the levels of ^33P incorporation into the peptide substrate were determined by the following method.
A phosphocellulose 96-well plate (Millipore, Cat no. MAPHNOB50) was pre-treated with 100 μL of a 100 mM phosphoric acid prior to the addition of the enzyme reaction mixture (40 μL). The solution was left to soak on to the phosphocellulose membrane for 30 minutes and the plate subsequently washed four times with 200 μL of a 100 mM phosphoric acid. […] Levels of non-enzyme catalyzed background radioactivity were determined by adding 16 μL of the 500 mM phosphoric acid to control wells, containing all assay components (which acts to denature the enzyme), prior to the addition of the [γ-^33P]-ATP solution. Levels of enzyme catalyzed. ^33P incorporation were calculated by subtracting mean background counts from those measured at each inhibitor concentration. […] Ki values were calculated from initial rate data by non-linear regression using the Prism software package (Prism 3.0, Graphpad Software, San Diego, Calif.).

Colo205 cells = test: Analysis of cell proliferation and viability; assay type: cell-based; settings: Homo sapiens, read-out: IC50 value
Experimental: Colo205 cells were seeded in 96 well plates and serially diluted compound was added to the wells in duplicate. Control groups included untreated cells, the compound diluent (0.1% DMSO alone) and culture medium without cells.
To measure proliferation, 3 h prior to the end of the experiment 0.5 μCi of 3H thymidine was added to each well. Cells were then harvested and the incorporated radioactivity counted on a Wallac microplate beta-counter. Cell viability was assessed using Promega CellTiter 96AQ to measure MTS conversion. Dose response curves were calculated using either Prism 3.0 (GraphPad) or SoftMax Pro 4.3.1 LS (Molecular Devices) software.

Aurora-2 (Aurora A) = biological target: T1, Aurora-2 (Aurora A) (Homo sapiens, UniProt O14965); test: Aurora-2 (Aurora A) inhibition assay, coupled enzyme; assay type: biochemical; settings: read-out: Aurora A kinase Ki value
T1 sequence (O14965 1-403): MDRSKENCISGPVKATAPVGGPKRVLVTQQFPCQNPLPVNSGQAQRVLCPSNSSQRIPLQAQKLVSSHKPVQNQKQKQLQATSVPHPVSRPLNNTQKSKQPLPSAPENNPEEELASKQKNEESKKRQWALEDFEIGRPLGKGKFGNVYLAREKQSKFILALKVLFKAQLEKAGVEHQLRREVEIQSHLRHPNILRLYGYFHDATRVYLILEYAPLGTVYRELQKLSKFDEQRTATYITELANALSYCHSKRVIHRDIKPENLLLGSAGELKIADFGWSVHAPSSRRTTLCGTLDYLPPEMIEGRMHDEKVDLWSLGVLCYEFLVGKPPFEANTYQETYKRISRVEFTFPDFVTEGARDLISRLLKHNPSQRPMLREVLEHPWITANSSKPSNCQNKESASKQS
Experimental: Assays were carried out in a mixture of 100 mM Hepes (pH7.5), 10 mM MgCl2, 1 mM DTT, 25 mM NaCl, 2.5 mM phosphoenolpyruvate, 300 μM NADH, 30 μg/ml pyruvate kinase and 10 μg/ml lactate dehydrogenase. […] Assays were carried out at 30° C. and in the presence of 40 nM Aurora-2.
The plate was preincubated for 10 minutes at 30° C. and the reaction initiated by addition of 10 μl of Aurora-2. Initial reaction rates were determined with a Molecular Devices SpectraMax Plus plate reader over a 10 minute time course. IC50 and Ki data were calculated from non-linear regression analysis using the Prism software package (GraphPad Prism version 3.0cx for Macintosh, GraphPad Software, San Diego Calif., USA).

[1] = COLO 205, Colo205 cells, incubated for 72 hours
[2] = COLO 205, Colo205 cells, incubated for 96 hours

Chain of Aurora-1 (Aurora B) (Q96GD4 whole entry): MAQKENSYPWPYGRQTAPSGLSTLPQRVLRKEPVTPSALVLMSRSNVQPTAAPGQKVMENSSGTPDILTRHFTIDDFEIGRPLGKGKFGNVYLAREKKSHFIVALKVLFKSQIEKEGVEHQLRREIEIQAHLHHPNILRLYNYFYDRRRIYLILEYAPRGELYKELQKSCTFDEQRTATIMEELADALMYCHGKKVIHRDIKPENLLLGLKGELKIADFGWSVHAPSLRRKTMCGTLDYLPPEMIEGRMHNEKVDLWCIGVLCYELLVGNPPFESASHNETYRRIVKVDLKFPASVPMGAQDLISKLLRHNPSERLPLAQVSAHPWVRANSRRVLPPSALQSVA

Ki (Aurora-1 (Aurora B))	IC50 (Colo205 cells; [1]) [nM]	Ki (Aurora-2 (Aurora A)) [nM]	IC50 (Colo205 cells; [2]) [nM]	Compound	IC50 (Colo205 cells; COLO 205, 72 h) [nM]	IC50 (Colo205 cells; COLO 205, 96 h) [nM]
≤ 10 nM	≤ 30	≤ 1		COC1(C2CC2)CN(c2cc(Nc3cc(C)[nH]n3)nc(Sc3ccc(NC(=O)C4CC4)cc3)n2)C1 [Compound 118]		
≤ 10 nM	30 to 200	≤ 1		Cc1cc(Nc2cc(N3CC(C)(C#N)C3)nc(Sc3ccc(NC(=O)c4ccccc4C(F)(F)F)cc3)n2)[nH]n1 [Compound 122]		
≤ 10 nM	30 to 200	1 to 5		Cc1cc(Nc2cc(N3CC4(CCCO4)C3)nc(Sc3ccc(NC(=O)C4CC4)cc3)n2)[nH]n1 [Compound 123]		
50 to 2000 nM	> 200	1 to 5		CCN(C)C(=O)c1ccc(Sc2nc(Nc3cc(C)[nH]n3)cc(N3CC(O)(C4CC4)C3)n2)cc1 [Compound 125]		
10 to 50 nM and < 25 nM	30 to 200	1 to 5		Cc1cc(Nc2cc(N3CC(F)(F)C3)nc(Sc3ccc(NC(=O)CC(F)(F)F)cc3)n2)[nH]n1 [Compound 130]		
10 to 50 nM and < 25 nM	≤ 30	≤ 1		Cc1cc(Nc2cc(N3CC(O)(C4CC4)C3)nc(Sc3ccc(N4CCCC4=O)cc3)n2)n[nH]1 [Compound 133]		
50 to 2000 nM	> 200	≤ 1		CCC(Nc1ccc(Sc2nc(Nc3cc(C)n[nH]3)cc(N3CC(O)(C4CC4)C3)n2)cc1)C(F)(F)F (stereo not drawn) [Compound 136]		
50 to 2000 nM			50 to 1000	Cc1cc(Nc2cc(N3CCC3)nc(Sc3ccc(NC(=O)c4cccc(CN5CCC5)c4)cc3)n2)[nH]n1 [Compound 140]		
50 to 2000 nM	> 200	1 to 5		CCOc1ccc(Sc2nc(Nc3cc(C)n[nH]3)cc(N3CC(C(=O)N4CCCC4)C3)n2)cc1 [Compound 141]		
				Cc1cc(Nc2cc(N3CC(F)(C4CC4)C3)nc(Sc3ccc(NC(=O)C4(C(F)(F)F)CC4)cc3)n2)[nH]n1 [Compound 143]	≤ 30	
≤ 10 nM		≤ 1	≤ 50	Cc1cc(Nc2cc(N3CC(O)(C4CC4)C3)nc(Sc3ccc4nc(C)ccc4c3)n2)[nH]n1 [Compound 153]		
10 to 50 nM and < 25 nM		≤ 1	50 to 1000	Cc1cc(Nc2cc(N3CC(F)(C4CC4)C3)nc(Sc3ccc4nc(C)ccc4c3)n2)[nH]n1 [Compound 154]		
10 to 50 nM and < 25 nM	30 to 200	≤ 1	50 to 1000	Cc1cc(Nc2cc(N3CC(F)(C4CC4)C3)nc(Sc3ccc4c(c3)N(C)C(C(F)(F)F)N4)n2)[nH]n1 (stereo not drawn) [Compound 156]		
				Cc1cc(Nc2cc(N3CC(F)(C4CC4)C3)nc(Sc3ccc(NC(=O)CCC(F)(F)F)cc3)n2)[nH]n1 [Compound 157]	≤ 30	≤ 50
			50 to 1000	CSc1ccccc1C(=O)Nc1ccc(Sc2nc(Nc3cc(C)[nH]n3)cc(N3CCC3)n2)cc1 [Compound 165]		
10 to 50 nM and < 25 nM	≤ 30			Cc1cc(Nc2cc(N3CC(N4CCCC4)C3)nc(Sc3ccc4nc(C(F)(F)F)n(C)c4c3)n2)[nH]n1 [Compound 176]		

Compound	Ki (Aurora-1 (Aurora B))	IC50 (Colo205 cells; [1]) [nM]	Ki (Aurora-2 (Aurora A)) [nM]	IC50 (Colo205 cells; [2]) [nM]	IC50 (Colo205 cells; COLO 205, 72 h) [nM]	IC50 (Colo205 cells; COLO 205, 96 h) [nM]
Cc1cc(Nc2cc(N3CCC3)nc(Sc3ccc(NC(=O)c4ccccc4C(F)F)cc3)n2)[nH]n1 [Compound 120]		> 200				
CCOP(=O)(O)OC1(C)CN(c2cc(Nc3cc(C)n[nH]3)nc(Sc3ccc(NC(=O)c4ccccc4C(F)(F)F)cc3)n2)C1 [Compound 129]	≤ 10 nM	> 200	≤ 1			
CCC(=O)Nc1ccc(Sc2nc(Nc3cc(C)[nH]n3)cc(N3CC(F)(C4CC4)C3)n2)cc1 [Compound 147]			1 to 5		30 to 200	
Cc1cc(Nc2cc(N3CC(F)(C4CC4)C3)nc(Sc3ccc(N)cc3)n2)[nH]n1 [Compound 174]		> 200				
Cc1cc(Nc2cc(N3CCC3)nc(Sc3ccc(NC(=O)c4ccccc4Cl)nc3)n2)[nH]n1 [Compound 207]		> 200	1 to 5			
